{
  "source": "patent US7094787B2",
  "about": "“Compositions for regulating desire for smoking” (Taiyo Kagaku Co., Ltd., priority 2000, dated 2006)",
  "tested_on": "mice",
  "assay_type": "in vivo",
  "conditions": "oral administration at 5 g/kg weight",
  "description": "The composition of the present invention is based on action for suppressing the craving for smoking that has been found for the theanine for the first time. The theanine has been known to be a main ingredient of sapidity in tea and used as a food additive for the sapidity. […] There is no limitation in an amount of addition based on the Food Hygiene Law. Further, unlike a conventional nicotine preparation, since there is no dependence, the composition of the present invention can suppress the craving for smoking safely and effectively.",
  "data": [
    {"smiles": "CCNC(=O)CC[C@H](N)C(=O)O", "note": "[theanine, γ-glutamyl ethylamide]", "values": [
      {"measurement": "death in acute toxicity test", "value": "no case of death"}
    ]}
  ]
}
